US8865909B2, “Anti-biofilm agents” (Yissum Research Development Company of the Hebrew …, priority 2008, dated 2014)

Tests used:
V. harveyi strains = assay: Quorum sensing inhibition (luminescence), planktonic conditions; format: cell-based; settings: BB120, BB170, BB886, BB721, JAF375, with AI-1, AI-2 or AI-0 spent medium
Method: Mutant strains of V. harveyi, which are impaired at different locations of the quorum sensing (QS) cascade (see, Table 1 hereinabove) were used for the QSI assays. Bacteria were grown to cell density of 1.5-2.5×10^9 CFU/ml (15-16 hours) in AB medium at 30° C. with constant shaking. The fresh cultures were then diluted 5000-fold in fresh AB medium containing TZD10, an exemplary ABF agent according to embodiments of the present invention, at concentrations of 0.02, 0.2, 20 and 200 μM. […]
The assay was conducted in white 96-well microtitraton plates with a clear bottom (NUNC, Denmark). Luminescence was measured continuously by a GENios reader (TECAN, Austria) every 30 minutes and the bacterial density was determined (O.D. 595 nm).
Each sample was tested in three separate biological experiments, each conducted in triplicate samples. The effect of the ABF agent was determined relatively to the endogenous level of luminescence expressed by V. harveyi BB120, BB721, BB170, BB886 and JAF375 relative to the OD, by calculating the area under the curve (AUC) between 3.5-7 hours, applying the trapezoid rule for AUC calculation.

Vero cells = Vero cells detachment assay (96-well polystyrene plate, XTT); format: cell-based
Method: Vero cells (0.1 ml, 1.6×10^6 cells/ml) were plated in each well of flat 96-wells polystyrene plate (Nunc), and incubated overnight at 37° C. and 5% CO2. The cells were then incubated with various concentrations of the exemplary tested ABF agent TZD10. At the indicated time intervals, the cells were washed and re-suspended in fresh medium. XTT (2,3-bis-(2-methoxy-4-nitro-5-sulfophenyl)-2H-tetrazolium-5-carboxanilide) analysis was performed to determine the viability of the attached cells.

`CCCCCCCCC/C=C1\SC(=O)NC1=O` [TZD10, (Z)-5-decylidenethiazolidine-2,4-dione] was tested, and the “effect on quorum sensing (luminescence)” value (V. harveyi strains) was “classic dose-response curve”, the “cell viability after detachment assay” value (Vero cells; 50 μg/ml, overnight incubation) was “most of the cells are still viable” and the cell detachment (Vero cells; 100 μg/ml, 30 minutes) was “most of the cells were detached”. For the same molecule, the cell detachment (Vero cells; 200 μg/ml, 5 minutes) was “most of the cells were detached”.
